Test results taken from US20200262813A1, “1,5,7-TRISUBSTITUTED ISOQUINOLINE DERIVATIVES, PREPARATION THEREOF, AND USE THEREOF IN MEDICINES” (SHANGHAI HAIYAN PHARMACEUTICAL TECHNOLOGY CO., LTD., priority 2016, published 2020).

How the values were obtained:
Pfeiffer cells = assay: Cell proliferation test (cell counting kit-8, 6 days); assay type: cell-based; conditions: Homo sapiens, Pfeiffer, 144 h, 6 days' growth
Method: Cells were harvested by centrifuge and densities were determined using a CounterStar cell counter. Appropriate number of cells were plated in a 96-well culture plate and incubated overnight. Compounds to be tested were 1:3 diluted for 8 gradient points and added into corresponding wells. After 6 days' growth, cell counting kit-8 (Dojindo) was used to detect cell viability and absorbance values were read on Tecan infinite pro.

[1] = target: Recombinant PRC2 (EZH2-Y641F) (Homo sapiens, UniProt Q15910, Y641F); assay: In vitro methyltransferase activity test (LANCE Ultra); conditions: EZH2 Y641F IC50, Recombinant PRC2 (EZH2-Y641F), LANCE Ultra detection, 3 hours reaction;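 also: compounds tested as an 8-point threefold dilution series, fluorescence read after 1 h detection step at room temperature, IC50 derived from a four-parameter curve fit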
Recombinant PRC2 (EZH2-Y641F), sequence (Q15910 whole entry Y641F): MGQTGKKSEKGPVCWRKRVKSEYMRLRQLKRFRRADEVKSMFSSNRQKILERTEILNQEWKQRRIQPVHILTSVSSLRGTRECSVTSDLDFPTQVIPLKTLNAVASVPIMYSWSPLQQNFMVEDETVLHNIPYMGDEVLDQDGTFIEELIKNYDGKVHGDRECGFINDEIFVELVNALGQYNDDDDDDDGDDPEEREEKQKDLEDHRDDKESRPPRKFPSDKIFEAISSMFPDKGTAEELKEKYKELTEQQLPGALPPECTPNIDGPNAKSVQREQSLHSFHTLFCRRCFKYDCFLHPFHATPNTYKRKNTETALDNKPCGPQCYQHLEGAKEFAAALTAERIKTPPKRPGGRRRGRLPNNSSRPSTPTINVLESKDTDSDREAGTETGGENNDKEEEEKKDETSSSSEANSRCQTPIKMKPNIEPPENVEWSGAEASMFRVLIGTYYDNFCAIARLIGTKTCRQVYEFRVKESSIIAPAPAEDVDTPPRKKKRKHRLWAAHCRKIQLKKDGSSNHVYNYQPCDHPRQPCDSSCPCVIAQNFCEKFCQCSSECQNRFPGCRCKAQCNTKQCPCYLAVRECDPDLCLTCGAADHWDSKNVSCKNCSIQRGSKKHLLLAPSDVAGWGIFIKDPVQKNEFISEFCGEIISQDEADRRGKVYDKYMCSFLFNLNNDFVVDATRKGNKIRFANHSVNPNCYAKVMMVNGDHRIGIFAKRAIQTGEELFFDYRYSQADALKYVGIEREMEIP
Recombinant PRC2 (EZH2-Y641F), sequence (O75530 whole entry partner): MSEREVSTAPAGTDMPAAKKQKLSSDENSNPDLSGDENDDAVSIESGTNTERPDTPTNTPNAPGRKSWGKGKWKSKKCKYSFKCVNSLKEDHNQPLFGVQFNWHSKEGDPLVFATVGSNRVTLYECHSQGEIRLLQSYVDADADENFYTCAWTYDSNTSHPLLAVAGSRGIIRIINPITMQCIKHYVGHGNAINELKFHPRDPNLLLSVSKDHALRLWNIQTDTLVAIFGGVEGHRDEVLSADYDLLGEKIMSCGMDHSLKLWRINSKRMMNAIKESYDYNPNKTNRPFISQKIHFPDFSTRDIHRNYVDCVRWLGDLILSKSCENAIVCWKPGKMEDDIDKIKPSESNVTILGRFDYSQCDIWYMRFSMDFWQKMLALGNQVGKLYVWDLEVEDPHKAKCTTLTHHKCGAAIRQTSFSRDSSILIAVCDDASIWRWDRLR
Recombinant PRC2 (EZH2-Y641F), sequence (Q15022 whole entry partner): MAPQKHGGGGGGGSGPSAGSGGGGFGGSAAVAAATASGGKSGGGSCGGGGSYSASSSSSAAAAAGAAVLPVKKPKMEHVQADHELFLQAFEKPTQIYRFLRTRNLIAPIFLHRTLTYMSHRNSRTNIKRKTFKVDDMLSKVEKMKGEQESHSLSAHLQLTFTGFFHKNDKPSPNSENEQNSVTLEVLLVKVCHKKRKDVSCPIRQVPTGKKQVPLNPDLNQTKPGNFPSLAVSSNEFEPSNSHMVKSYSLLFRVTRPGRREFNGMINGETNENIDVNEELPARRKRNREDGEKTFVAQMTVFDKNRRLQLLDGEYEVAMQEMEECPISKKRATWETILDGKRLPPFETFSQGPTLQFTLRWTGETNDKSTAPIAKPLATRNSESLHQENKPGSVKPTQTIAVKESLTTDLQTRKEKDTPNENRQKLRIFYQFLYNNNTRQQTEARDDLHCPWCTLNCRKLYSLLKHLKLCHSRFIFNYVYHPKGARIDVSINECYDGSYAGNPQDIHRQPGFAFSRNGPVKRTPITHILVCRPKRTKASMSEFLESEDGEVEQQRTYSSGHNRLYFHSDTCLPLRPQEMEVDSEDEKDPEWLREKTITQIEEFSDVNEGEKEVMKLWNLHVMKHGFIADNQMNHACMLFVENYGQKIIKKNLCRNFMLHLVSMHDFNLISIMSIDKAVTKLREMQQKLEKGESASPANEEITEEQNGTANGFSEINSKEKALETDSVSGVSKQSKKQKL
Recombinant PRC2 (EZH2-Y641F), sequence (Q09028 whole entry partner): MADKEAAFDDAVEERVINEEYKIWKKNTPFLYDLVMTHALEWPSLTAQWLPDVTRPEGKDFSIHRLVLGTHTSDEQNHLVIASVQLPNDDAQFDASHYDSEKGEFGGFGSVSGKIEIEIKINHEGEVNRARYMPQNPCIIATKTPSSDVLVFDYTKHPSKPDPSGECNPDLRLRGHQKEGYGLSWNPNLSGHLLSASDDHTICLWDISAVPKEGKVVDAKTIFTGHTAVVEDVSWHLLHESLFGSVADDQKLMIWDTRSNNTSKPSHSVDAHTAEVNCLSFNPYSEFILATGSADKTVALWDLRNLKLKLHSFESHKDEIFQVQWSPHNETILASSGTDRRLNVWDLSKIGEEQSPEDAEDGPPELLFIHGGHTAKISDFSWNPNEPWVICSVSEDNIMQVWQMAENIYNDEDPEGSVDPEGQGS
Recombinant PRC2 (EZH2-Y641F), sequence (Q6ZN18 whole entry partner): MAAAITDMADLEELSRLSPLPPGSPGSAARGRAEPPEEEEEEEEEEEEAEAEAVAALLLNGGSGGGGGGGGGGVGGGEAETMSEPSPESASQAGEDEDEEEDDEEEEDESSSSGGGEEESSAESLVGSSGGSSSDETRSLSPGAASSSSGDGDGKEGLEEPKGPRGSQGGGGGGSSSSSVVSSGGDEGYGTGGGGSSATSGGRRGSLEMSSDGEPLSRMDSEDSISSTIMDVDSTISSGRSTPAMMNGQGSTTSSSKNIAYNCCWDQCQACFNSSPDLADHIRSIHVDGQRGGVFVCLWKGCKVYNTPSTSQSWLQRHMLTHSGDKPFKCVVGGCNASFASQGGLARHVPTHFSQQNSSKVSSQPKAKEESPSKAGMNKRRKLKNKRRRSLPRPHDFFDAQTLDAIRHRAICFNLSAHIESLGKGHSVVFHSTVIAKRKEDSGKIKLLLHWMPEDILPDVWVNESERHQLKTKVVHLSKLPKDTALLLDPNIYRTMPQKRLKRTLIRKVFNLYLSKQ

| Compound | IC50 [1] [nM] | IC50 (Pfeiffer cells) [nM] |
| --- | --- | --- |
| CCN(c1cc(N(C)c2cccnc2)cc2c(NCc3c(C)cc(C)[nH]c3=O)nccc12)[C@H]1CC[C@H](N(C)C)CC1 [Compound Z-183] | 128 | 395 |
| CCN(c1cc(N(C)c2cccnc2)cc2c(NCc3c(C)cc(C)[nH]c3=O)nccc12)C1CCC(N(C)C)CC1 (stereo not drawn) [Compound Z-186] | 67 | 251 |
| CCN(c1cc(Cl)cc2c(NCc3c(C)cc(C)[nH]c3=O)nccc12)C1CCNCC1 [Compound Z-201] | 59 | 133 |
| CCN(c1cc(OCCOC)cc2c(NCc3c(C)cc(C)[nH]c3=O)nccc12)C1CCC(N(C)C)CC1 (stereo not drawn) [Compound Z-206] | 115 | 234 |
| CCN(c1cc(Cl)cc2c(NCc3c(OC)cc(C)[nH]c3=O)nccc12)C1CCNCC1 [Compound Z-208] | 9 | 155 |
| CCN(c1cc(Cl)cc2c(NCc3c(C)cc(C)[nH]c3=O)nccc12)C1CC2CCC(C1)N2 (stereo not drawn) [Compound Z-209] | 10 | 250 |
| CCOc1cc(N(CC)C2CCC(N(C)C)CC2)c2ccnc(NCc3c(C)cc(C)[nH]c3=O)c2n1 (stereo not drawn) [Compound Z-222, 3-((4-((4-(dimethylamino)cyclohexyl) (ethyl)amino)-2-ethoxy-1,7-naphthyridin-8-ylamino)methyl)-4,6-dimethyl-2(1H)-one] | 143 | 484 |
| CCN(c1c(F)c(-c2ccc(N3CCN(C)CC3)nc2)cc2c(NCc3c(C)cc(C)[nH]c3=O)nccc12)C1CCOCC1 [Compound Z-224, 3-((5-(ethyl(tetrahydro-2H-pyran-4-yl)amino)-6-fluoro-7-(6-(4-methylpiperazin-1-yl)pyridin-3-yl)isoquinolin-1-ylamino)methyl)-4,6-dimethyl-2(1H)-one] | 360 | 605 |

Continued, in another order:

| IC50 [1] [nM] | Compound | IC50 (Pfeiffer cells) [nM] |
| --- | --- | --- |
| 42 | CCN(c1cc(-c2cnc(N3CCOCC3)nc2)cc2c(NCc3c(OC)cc(C)[nH]c3=O)nccc12)C1CCC(N(C)C)CC1 (stereo not drawn) [Compound Z-192] | 393 |
| 21 | CCN(c1cc(-c2ccc(N3CCN(C)CC3)nc2)cc2c(NCc3c(OC)cc(C)[nH]c3=O)nccc12)C1CCC(N(C)C)CC1 (stereo not drawn) [Compound Z-193] | 620 |
| 16 | CCN(c1cc(-c2ccc(CN3CCN(C)CC3)nc2)cc2c(NCc3c(C)cc(C)[nH]c3=O)nccc12)C1CCC(O)CC1 (stereo not drawn) [Compound Z-196] | 583 |
| 51 | CCN(c1cc(Cl)cc2c(NCc3c(OC)cc(C)[nH]c3=O)nccc12)C1CCC(N(C)C)CC1 (stereo not drawn) [Compound Z-197] | 371 |
| 28 | CCN(c1c(F)c(-c2ccc(N3CCN(C)CC3)nc2)cc2c(NCc3c(C)cc(C)[nH]c3=O)nccc12)C1CCC(N(C)C)CC1 (stereo not drawn) [Compound Z-218, 3-((5-((4-(dimethylamino)cyclohexyl) (ethyl)amino)-6-fluoro-7-(6-(4-methylpiperazin-1-yl)pyridin-3-yl)isoquinolin-1-ylamino)methyl)-4,6-dimethyl-2(1H)-one] | 212 |
| 31 | CCN(c1cc(-c2ccc(N3CCN(C)CC3)nc2)cc2c(NCc3c(C)cc(C)[nH]c3=O)nccc12)C1CCNC(C)C1 (stereo not drawn) [Compound Z-220, 3-((5-(ethyl (2-methylpiperidin-4-yl)amino)-7-(6-(4-methylpiperazin-1-yl)pyridin-3-yl)isoquinolin-1-ylamino)methyl)-4,6-dimethylpyridine-2(1H)-one] | 651 |
| 26 | CCN(c1c(F)c(-c2ccc(N3CCN(C)CC3)nc2)cc2c(NCc3c(C)cc(C)nc3O)nccc12)[C@H]1CC[C@H](N(C)C)CC1 [Compound Z-232, 3-((5-(((1R,4R)-4-(dimethylamino)cyclohexyl) (ethyl)amino)-6-fluoro-7-(6-(4-methylpiperazin-1-yl)pyridin-3-yl)isoquinolin-1-ylamino)methyl)-4,6-dimethyl-2(1H)-one] | 188 |
